From patent US12357665B2, “Pharmaceutical compositions and uses thereof in treating muscle atrophy” (Tzung-Yan, priority 2020, dated 2025)

What was measured:
Type in all cases: in vivo, mouse (C57BL/6J)
[1] = test system: muscle tissues of sucrose and MPTP-induced aging mice; test: Sucrose and MPTP-induced muscle atrophy in aging mice, oral administration: histology, atrogin-1 and klotho mRNA (Example 4); conditions: once per day day 17-30, ATG-125 60 mg/kg oral, selegiline 1 mg/kg intraperitoneal, FIG. 7
Procedure: (§1) Male C57BL/6J (6 and 18 months) mice were fed standard chow and water ad libitum, and housed under conditions of control temperature (26° C.) and illumination (12-hour light/dark cycle). […]
Total RNA was isolated from 0.2 g of muscle tissues using RNA extraction kit. For qRT-PCR (real-time reverse transcription-PCR), equal amounts of RNA were retro-transcribed to cDNA using cDNA reverse transcription kit according to the manufacturer's instruction. atrogin-1, klotho, mitochondrial transcription factor A (TFAM), SIRT1, PGC1α, nuclear respiratory factor 1 (NRF1), UCP1, and UCP2 mRNA expressions were evaluated using the SYBR® Green PCR master mix. Relative expression was calculated using the ΔΔCt method with normalization to constitutive genes. […]

[2] = test system: mitochondrial biogenesis mediators (SIRT1, PGC1α, NRF1, TFAM, UCP1, UCP2); test: Sucrose and MPTP-induced aging mice: mitochondrial molecules mRNA in muscle tissues (Example 5); conditions: once per day day 17-30, ATG-125 60 mg/kg oral, selegiline 1 mg/kg intraperitoneal, FIG. 8
Procedure: as §1
Total RNA was isolated from 0.2 g of muscle tissues using RNA extraction kit. For qRT-PCR (real-time reverse transcription-PCR), equal amounts of RNA were retro-transcribed to cDNA using cDNA reverse transcription kit according to the manufacturer's instruction. atrogin-1, klotho, mitochondrial transcription factor A (TFAM), SIRT1, PGC1α, nuclear respiratory factor 1 (NRF1), UCP1, and UCP2 mRNA expressions were evaluated using the SYBR® Green PCR master mix. Relative expression was calculated using the ΔΔCt method with normalization to constitutive genes.
Mitochondria play an essential role in energy production, redox homeostasis, and the regulation of cell death pathways. […] Thus, whether ATG-125 solution improves the mitochondrial function in the animal having muscle atrophy was evaluated in this example, and the results were respectively depicted in FIG. 8.

[3] = test system: muscle tissues of aging mice fed with sucrose; test: Sucrose-induced muscle atrophy in aging mice, topical administration: histology and muscle atrophy-associated molecules (Example 1); conditions: once per day day 17-30, ATG-125 60 mg/kg topical, 4-OHT 1 mg/kg intraperitoneal
Procedure: as §1
(§2) Muscle tissues were harvested immediately from the mice after they were sacrificed, followed by flash frozen in liquid nitrogen and stored at −80° C. Proteins were extracted from muscle tissues with distilled water containing protease inhibitors, and each protein concentration was determined by protein assay kits. Protein (50 μg) was analyzed on a 10% sodium dodecyl sulfate polyacrylamide gel electrophoresis (SDS-PAGE), and transferred to a polyvinylidene difluoride (PVDF) membrane. […] The optical densities of the bands were quantified using software. […]

[4] = test system: mTOR/insulin signaling pathway (IGF1R, IRS1, PI3K, AKT, mTOR, S6K, 4EBP1); test: Sucrose-induced aging mice: mTOR/insulin signaling pathway in muscle tissues, Western blot (Example 2); conditions: once per day day 17-30, ATG-125 60 mg/kg topical, 4-OHT 1 mg/kg intraperitoneal, FIGS. 4A and 4B
Procedure: as §1, §2

[5] = test system: mitochondrial biogenesis mediators (SIRT1, PGC1α, NRF1, TFAM, UCP1, UCP2, UCP3); test: Sucrose-induced aging mice: mitochondrial molecules in muscle tissues, mRNA and protein (Example 3); conditions: once per day day 17-30, ATG-125 60 mg/kg topical, 4-OHT 1 mg/kg intraperitoneal, FIGS. 5 and 6
Procedure: as §1, §2

Compound	adverse effect of sucrose and MPTP on muscle tissues (mRNA levels of Atrogin-1 and Klotho) [1]	levels of degenerated myofibers in muscles ([1]; H&E)	expression levels of mitochondrial biogenesis mediators (mRNA SIRT1, PGC1α, NRF1, TFAM, UCP1, UCP2) in muscle tissues [2]	adverse effect of sucrose on muscle tissues (protein levels of pAMPK, FOXO3a, MuRF1, lipofuscin; mRNA levels of Atrogin-1 and Klotho) ([3]; FIGS. 1 to 3)	levels of adipocytes and degenerated myofibers in muscles ([3]; H&E, FIG. 1)	phosphorylated levels (activations) of mTOR/insulin signaling molecules (pIGF1R, pIRS1, pPI3K, pAKT, pmTOR, pS6K, p4EBP1) [4]	expression levels of mitochondrial biogenesis mediators (mRNA SIRT1, PGC1α, NRF1, TFAM, UCP1, UCP2; protein SIRT1, PGC1α, UCP1, UCP2, UCP3) in muscle tissues [5]
C#CCN(C)[C@H](C)Cc1ccccc1 [selegiline]	significantly reversed	decreased	increased				
4-hydroxytamoxifen [4-OHT]				significantly reversed	decreased	enhanced	increased
